Experimental findings from patent US20260034094A1, “COMPOSITIONS AND METHODS FOR INDUCING FERROPTOSIS” (Kojin Therapeutics, Inc., priority 2022, published 2026) are described below.

The EC50 is the concentration giving half of the maximal effect. One may read the IC50 as the point on the concentration scale where inhibition reaches its midpoint.

The structures appear in SMILES notation.

The test system of one assay is cancer cells. Put plainly: Cell line profiling with a ferroptosis-inducing agent with and without a rescue agent (CellTiter-Glo). The format is cell-based, human. To be noted: for fractional viability of cancer cells with fer-1 co-treatment: +1.5 μM fer-1. Here is the method:
Cell viability assays are performed by seeding 1,000 cells per well (30 μl volume) in opaque white 384-well plates (Corning). Cells are allowed to adhere for 24 h, after which they are exposed to compounds for 72 hours. DMSO stock solutions of compounds are added to cells using a CyBio Well Vario liquid dispenser (Analytik Jena AG). Cellular ATP levels are measured using CellTiter-Glo (Promega) as a surrogate for viability. Rescue assays are performed using rescue agents-ferrostatin-1 (fer-1, 1.5 μM), liproxstatin-1 (lip-1, 1 μM), deferoxamine (DFO, 50 μM), and other ferroptosis inhibitors added to cells at the time of addition to assay plates. Dose-response curves for BSO and RSL3 are shown in FIG. 4 with and without anti-ferroptosis rescue agent treatment (indicated as no treatment or +1.5 μM fer-1).

A further assay concerns solid tumor animal model. Put plainly: Microdosing tumors with ferroptosis-inducing agents (implantable drug delivery system, cleaved caspase-3 / H&E staining). The format is in vivo, C57BL6/J mice. To be noted: for tumor response (cleaved caspase-3 staining: cell death, white blood cell recruitment): local sustained administration, 1-10 μM at the tumor site, 24 hours. Here is the method: For the allograft study, cancer cell line-derived tumor cells were injected into the flanks of male C57BL6/J mice. Assays were initiated when the tumor diameter was approximately 6-7 mm.
Microdose drug delivery was performed for the assay described herein. The compounds in Table 22 were packed into device reservoirs using a tapered metal needle. Reservoirs were loaded for initial release of liproxstatin-1 (where included) followed by a 4-6 h delayed release of ferroptosis inducers. Devices were prepared for dose administration into mouse tumors. Devices delivered the ferroptosis inducing agent for 24-72 hours in the tissue. The tumor was then excised, and the tissue was snap frozen with liquid nitrogen. Tissue was sectioned using a standard cryotome, and tissue slices of 20 μm in thickness were collected from each reservoir for analysis by immunoassays, transcriptomics, and metabolomic assays.
A drug delivery system was applied to a: solid tumor animal model. Animals were administered (1) L-BSO or (2) L-BSO+liproxstatin-1 (lip-1) as a ferroptosis-rescue agent. Drugs were loaded into an implantable drug delivery system to achieve concentrations of 1-10 μM for both BSO+lip-1 at the tumor site. After 24 hours, tumors were removed and stained for cleaved caspase-3 to indicate cell death in the tumor (FIG. 2A). […] Therefore, ferroptosis can be induced by both local and systemic administration of BSO.
A drug delivery system was applied to a: solid tumor animal model. Animals were administered (1) ML-210 or (2) ML-210+liproxstatin-1 (lip-1), as a ferroptosis rescue agent. Drugs were loaded into an implantable drug delivery system to achieve concentrations of 1-10 μM for both ML-210 and ML-210+liproxstatin-1 (lip-1) at the tumor site. After 24 hours, tumors were removed and stained for cleaved caspase-3.
To achieve therapeutic doses of RSL3 in vivo, a drug delivery system was applied to a: solid tumor animal model. Animals were administered (1) RSL3 or (2) RSL3+liproxstatin (lip-1) as a ferroptosis rescue agent. Drugs were loaded into an implantable drug delivery system to achieve concentrations of 1-10 μM for both RSL-3 and RSL3 and lip-1 co-administration at the tumor site. After 24 hours of sustained administration, tumors were removed and stained for cleaved caspase-3 (FIG. 5A). Dashed lines indicate region of drug exposure.

The next assay concerns RKN cells. Kind of assay: RKN cell profiling assay (cell viability, CellTiter-Glo). In kind it is cell-based. To be noted: cell viability, read-out: Cell Killing EC50. The procedure, abridged: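 Viability read by CellTiter-Glo luminescence after 96 h compound exposure (0.5% DMSO final) of cells plated at 1,000/well in 10% FBS F-12 and allowed 24 h attachment. Four-parameter fits gave EC50; rescue arms used ferrostatin-1, 1.5 μM, present from seeding.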
On the technique in general: ATP-based viability assays read luminescence as a measure of living cells.

The target in the next assay is human recombinant GCL (Homo sapiens (Human), UniProt P48506). Put plainly: GCL enzyme profiling assay (ADP-Glo luminescence). To be noted: human recombinant GCL, ADP-Glo; read-out: GCL IC50. In kind it is biochemical. The procedure, abridged: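 IC50 fitted by four-parameter logistic to luminescent ADP formation (ADP-Glo). Reaction at room temperature in HEPES pH 7.5 with 30 mM MgCl2, 0.2% F-127, 1% DMSO; 5 nM GCL and 0.6 mM ATP preincubated 1 h before adding 1 mM glutamate plus 1.2 mM α-aminobutyrate for 2 h.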
Chain of human recombinant GCL (P48506 whole entry): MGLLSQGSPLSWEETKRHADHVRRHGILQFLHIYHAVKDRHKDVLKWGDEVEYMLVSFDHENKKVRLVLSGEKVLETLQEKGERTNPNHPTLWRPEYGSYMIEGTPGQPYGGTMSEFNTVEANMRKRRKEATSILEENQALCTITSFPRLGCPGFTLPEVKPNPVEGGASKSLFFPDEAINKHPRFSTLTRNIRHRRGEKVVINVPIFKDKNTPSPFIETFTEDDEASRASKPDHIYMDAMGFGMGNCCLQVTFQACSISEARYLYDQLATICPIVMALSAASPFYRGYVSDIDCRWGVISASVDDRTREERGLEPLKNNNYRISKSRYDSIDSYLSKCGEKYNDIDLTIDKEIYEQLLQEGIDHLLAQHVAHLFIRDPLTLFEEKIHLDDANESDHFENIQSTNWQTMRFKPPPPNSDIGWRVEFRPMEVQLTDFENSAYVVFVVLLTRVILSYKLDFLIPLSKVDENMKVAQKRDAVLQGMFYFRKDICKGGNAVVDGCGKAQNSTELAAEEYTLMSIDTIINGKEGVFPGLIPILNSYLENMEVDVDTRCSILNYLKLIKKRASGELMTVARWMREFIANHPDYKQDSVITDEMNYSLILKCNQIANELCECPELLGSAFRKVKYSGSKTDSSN
For orientation: ADP-Glo turns the ADP formed in a reaction into a luminescent signal.

As to `CCCCS(=N)(=O)CC[C@H](N)C(=O)O` (stereo partly drawn) [BSO, buthionine sulfoximine], the “fractional viability of cancer cells with fer-1 co-treatment” value with cancer cells is “not observed”. For the same compound, in the assay on solid tumor animal model (compared with BSO+fer-1 treated sections of the tumor), the “fractional viability of tumor” value is “significant reductions in fractional viability”. Besides, the “tumor response (cleaved caspase-3 staining: cell death, white blood cell recruitment)” value (shortened to “tumor response”) with solid tumor animal model was “recruitment of white blood cells to the tumor indicating immune cell recruitment and cell death at the tumor site”.

Turning to `CC(O)(CCS(=N)(=O)CC[C@H](N)C(=O)O)C1CCC1` (stereo partly drawn) [Compound 497, (2S)-2-amino-4-(3-cyclobutyl-3-hydroxybutylsulfonimidoyl)butanoic acid], the EC50 with RKN cells was at least 1000 µM. Moreover, the IC50 on human recombinant GCL fell in the range of 20 to 2000 µM.

For `N=S(=O)(CC[C@H](N)C(=O)O)CCC1(c2ncc(-c3ccc(Cl)cc3Cl)cn2)CCC1` (stereo partly drawn) [Compound 498, (2S)-2-amino-4-(2-(1-(5-(2,4-dichlorophenyl)pyrimidin-2-yl)cyclobutyl)ethylsulfonimidoyl) butanoic acid], in the assay with RKN cells, the EC50 was below 1000 µM. Further, the IC50 on human recombinant GCL was at most 20 µM.

On to `N[C@@H](CCS(=O)(=O)NCC(O)(c1ccc(-c2ccc(Cl)cc2Cl)cn1)C(F)(F)F)C(=O)O` (stereo partly drawn) [Compound 513, (2S)-2-amino-4-(N-(2-(5-(2,4-dichlorophenyl)pyridin-2-yl)-3,3,3-trifluoro-2-hydroxypropyl)sulfamoyl)butanoic acid], for which, in the assay with RKN cells, the EC50 was at least 1000 µM. In addition, the IC50 on human recombinant GCL is at most 20 µM.

As to `N[C@@H](CCS(=O)(=O)NCC(O)(c1ccc(-c2ccccc2)cn1)C(F)(F)F)C(=O)O` (stereo partly drawn) [Compound 514, (2S)-2-amino-4-(N-(3,3,3-trifluoro-2-hydroxy-2-(5-phenylpyridin-2-yl)propyl)sulfamoyl)butanoic acid], in the assay on RKN cells, the EC50 was at least 1000 µM. The IC50 at human recombinant GCL lay in the range of 20 to 2000 µM.

As to `CCOC(=O)c1ccc(NC2CCCCC2)c(N)c1` [Ferrostatin-1, ferrostatin-1], in the assay with cancer cells (RSL3 and BSO treated tumors in vivo, 1.5 μM fer-1), the “rescue from cell death” value is on record as “prevents cell death”.

For `Cc1onc(C(=O)N2CCN(C(c3ccc(Cl)cc3)c3ccc(Cl)cc3)CC2)c1[N+](=O)[O-]` [ML-210], in the assay with solid tumor animal model, the “tumor response” value is “recruitment of white blood cells to the tumor indicating immune cell recruitment and cell death at the tumor site”.

Consider `COC(=O)c1ccc([C@H]2c3[nH]c4ccccc4c3C[C@H](C(=O)OC)N2C(=O)CCl)cc1` [RSL3, (1S,3R)-RSL3], for which the “fractional viability of cancer cells with fer-1 co-treatment” value with cancer cells was “reduction in the fractional viability of cancer cells”. Besides, in the assay on cancer cells (dose-response, with and without 1.5 μM fer-1), the ferroptosis induction entry is on record as “robust inducer of ferroptosis”. Also, in the assay with solid tumor animal model, the “tumor response” value is “White blood cell recruitment and cell death were prominent”.

For `N=[S@@](=O)(CC[C@H](N)C(=O)O)CCC1(c2ccccn2)CCC1` [compound 388], in the assay on RKN cells, the EC50 is below 1000 µM. Also, the IC50 on human recombinant GCL lay within 20 to 2000 µM.

As for `N=[S@](=O)(CC[C@H](N)C(=O)O)CCC1(c2ccccn2)CCC1` [compound 389], the EC50 in the assay on RKN cells was at least 1000 µM. On human recombinant GCL, the IC50 was above 2000 µM.

For the compound `N[C@@H](CCS(=O)(=O)CCC1(c2ccccn2)CCC1)C(=O)O` [compound 390], the EC50 in the assay on RKN cells was at least 1000 µM. On human recombinant GCL, the IC50 was above 2000 µM.

As to `N=S(=O)(CCC(c1ccc(S(=O)(=O)Nc2ccccc2)cc1)C(F)(F)F)CC[C@H](N)C(=O)O` (stereo partly drawn) [compound 499], the concentration for a half-maximal effect (EC50) in the assay with RKN cells was at least 1000 µM. In addition, the IC50 at human recombinant GCL is at most 20 µM.

As for `N=[S@SP2](=O)(CCC(N)C(=O)O)CCC12CC(c3ccc(C(F)(F)F)cc3)(C1)C2(F)F` (stereo not drawn) [compound 500], the EC50 with RKN cells is at least 1000 µM. Also, the IC50 at human recombinant GCL is at most 20 µM.

In the case of `N=S(=O)(CC[C@H](N)C(=O)O)CCC(O)(c1ccc(Oc2ccc3ccc(=O)oc3c2)cc1)C(F)(F)F` (stereo partly drawn) [compound 501], the EC50 with RKN cells is at least 1000 µM. Further, the IC50 on human recombinant GCL is at most 20 µM.

As to `N=S(=O)(CC[C@H](N)C(=O)O)CCC(O)(c1nc2ccccc2o1)C(F)(F)F` (stereo partly drawn) [compound 502], in the assay with RKN cells, the EC50 was below 1000 µM. Besides, the IC50 at human recombinant GCL is at most 20 µM.

On to `N=S(=O)(CC[C@H](N)C(=O)O)CCC(O)(C1[C@@H](c2ccccc2)[C@H]1c1ccccc1)C(F)(F)F` (stereo partly drawn) [compound 503], for which the EC50 in the assay on RKN cells is at least 1000 µM. The IC50 at human recombinant GCL lay within 20 to 2000 µM.

For `CC(=O)N(c1ccc(C(O)(CC[S@SP3](=N)(=O)CCC(N)C(=O)O)C(F)(F)F)cc1)c1nccs1` (stereo not drawn) [compound 504], in the assay on RKN cells, the EC50 was at least 1000 µM. Besides, the IC50 at human recombinant GCL was at most 20 µM.

Take `N=[S@SP2](=O)(CCC(N)C(=O)O)CCC(O)(c1ccc(Nc2nccs2)cc1)C(F)(F)F` (stereo not drawn) [compound 505]: in the assay on RKN cells, the EC50 was at least 1000 µM. On human recombinant GCL, the IC50 is at most 20 µM.

As for `CC(=O)Nc1ccc(C(O)(CCS(=N)(=O)CC[C@H](N)C(=O)O)C(F)(F)F)cc1` (stereo partly drawn) [compound 506], the EC50 in the assay on RKN cells was below 1000 µM. Besides, the IC50 at human recombinant GCL lay within 20 to 2000 µM.

As to `N=[S@SP2](=O)(CCC(N)C(=O)O)CCC(O)(c1ccc(N[S@SP3](=O)(=O)c2ccccc2)cc1)C(F)(F)F` (stereo not drawn) [compound 507], in the assay on RKN cells, the EC50 is at least 1000 µM. Also, at human recombinant GCL, the IC50 is at most 20 µM.

`N=[S@SP2](=O)(CCC(N)C(=O)O)CCC(c1ccccc1)(C(F)(F)F)C(F)(F)F` (stereo not drawn) [compound 508]: in the assay on RKN cells, the EC50 was at least 1000 µM. Besides, the IC50 at human recombinant GCL was 20 to 2000 µM.

Consider `N=[S@SP2](=O)(CCC(N)C(=O)O)CCC(c1ccc(-c2ccccc2)cc1)(C(F)(F)F)C(F)(F)F` (stereo not drawn) [compound 509], for which the EC50 in the assay on RKN cells was at least 1000 µM. On human recombinant GCL, the IC50 is at most 20 µM.

Take `N=S(=O)(CC[C@H](N)C(=O)O)CCC(c1ccc(-c2ccc(Cl)cc2Cl)cc1)(C(F)(F)F)C(F)(F)F` (stereo partly drawn) [compound 510]: the EC50 in the assay on RKN cells was at least 1000 µM. Further, the 50% inhibitory concentration (IC50) at human recombinant GCL is at most 20 µM.

In the case of `N=S(=O)(CC[C@H](N)C(=O)O)CCC1(C(F)(F)F)OCc2ccccc21` (stereo partly drawn) [compound 511], in the assay with RKN cells, the EC50 is below 1000 µM. Moreover, at human recombinant GCL, the IC50 is 20 to 2000 µM.

For the compound `N[C@@H](CCS(=O)(=O)CCC1(C(F)(F)F)OC(=O)c2ccccc21)C(=O)O` (stereo partly drawn) [compound 512], in the assay on RKN cells, the EC50 was at least 1000 µM. The 50% inhibitory concentration (IC50) on human recombinant GCL was above 2000 µM.

Turning to `N=[S@@](=O)(CC[C@H](N)C(=O)O)CCC1(CO)CCC1` [compound 515], the EC50 with RKN cells is below 1000 µM. The IC50 on human recombinant GCL is at most 20 µM.

Regarding `N[C@@H](CCS(=O)(=O)CCC(O)C(F)(F)F)C(=O)O` (stereo partly drawn) [compound 516], the 50% effective concentration (EC50) in the assay on RKN cells is at least 1000 µM. Further, on human recombinant GCL, the IC50 was above 2000 µM.
